Reference: patent publication US11311548B2, “Cancer therapy” (Aslan Pharmaceuticals Pte. Ltd., priority 2017, dated 2022)
Entries after “also recorded” stand apart in the source; their conditions may differ.

Columns and labels:
[1] = system: HL-60; assay: Differentiation of AML cell line (CD11b/CD14 flow cytometry, NBT assay, Wright-Giemsa staining); format: cell-based; conditions: HL-60, FAB M2
Protocol: (§1) The AML cell lines were dosed with the varying concentrations of ASLAN003 and differentiation of the cell lines were observed via upregulation of CD11b and CD14 on the cell surface via flow cytometry. Differentiation was also determined using the NBT assay and from morphological observations from Wright-Giemsa staining.

[2] = system: KG-1; assay: as above; format: cell-based; conditions: KG-1, FAB M0/M1
Protocol: as §1

[3] = system: MOLM-14; assay: as above; format: cell-based; conditions: MOLM-14, FAB M5
Protocol: as §1

[4] = system: NB-4; assay: as above; format: cell-based; conditions: NB-4, FAB M3
Protocol: as §1

[5] = system: THP-1; assay: as above; format: cell-based; conditions: THP-1, FAB M5
Protocol: as §1

[6] = system: MOLM-14 xenograft; assay: MOLM-14 xenograft model in NSG mice; format: in vivo
Protocol: NSG mice were inoculated with MOLM-14 cells via tail vein injection. Treatment by oral gavage with either ASLAN003 (50 mg/kg QD) or vehicle control was started 3 days past inoculation. 11 mice were treated in the ASLAN003 group and 12 mice were treated in the vehicle control group. The following data is collected at the end of the experiment: […]

[7] = system: AD345 primary MDS cells; assay: FACs analysis of primary MDS cells; format: cell-based; conditions: 96 hours
Protocol: (§2) AD345 primary MDS cells (refractory cytopenia with multilineage dysplasia, normal karyotype) and AD537 primary MDS bone marrow cells (refractory cytopenia with multilineage dysplasia, karyotype 46, XY, 43.1% myeloid) were treated with ASLAN003 (4000 nM) or DMSO control for 96 hours. A FACs analysis was then performed using Pacific blue dye. The AD537 cells were also stained with Wright-Giemsa and NBT reduction.

[8] = system: AD537 primary MDS bone marrow cells; assay: FACs analysis of primary MDS bone marrow cells; format: cell-based; conditions: 96 hours
Protocol: as §2

[9] = system: Multiple myeloma (MM) cell lines; assay: CellTiter-Glo Luminescent Cell Viability Assay, MM cell lines; format: cell-based, human; conditions: increasing dose, 48 hours
Protocol: (§3) Multiple myeloma (MM) or chronic myeloid leukaemia (CML) cell lines were seeded at 20,000 cells in 100 μL of medium in 96-well format and treated with increasing dose of ASLAN003 for 48 hours. DMSO was used as control. The CellTiter-Glo® Luminescent Cell Viability Assay, which is a homogeneous method of determining the number of viable cells in culture based on quantitation of the ATP present, i.e. an indicator of metabolically active cells was then performed on the cell lines.

[10] = system: chronic myeloid leukaemia (CML) cell lines; assay: CellTiter-Glo Luminescent Cell Viability Assay, CML cell lines; format: cell-based, human; conditions: CML cell lines (K562, KCL-22), increasing dose, 48 hours
Protocol: as §3

Question: With `COc1cccc(-c2cc(F)c(Nc3ncccc3C(=O)O)c(F)c2)c1` [ASLAN003, 2-(3,5-difluoro-3′-methoxybiphenyl-4-ylamino) nicotinic acid] as the compound, how does the “ASLAN003 Differentiation” value [1] read?
Answer: did not induce observed differentiation effects; also recorded: Negative

Question: What about the “ASLAN003 Differentiation” value [2] of the same compound?
Answer: myeloid differentiation effects of ASLAN003 were observed; also recorded: Positive

Question: What about the “ASLAN003 Differentiation” value [3] of the same compound?
Answer: myeloid differentiation effects of ASLAN003 were observed; also recorded: Positive

Question: What about the “ASLAN003 Differentiation” value [4] of the same compound?
Answer: did not induce observed differentiation effects; also recorded: Negative

Question: And the “ASLAN003 Differentiation” value [5]?
Answer: myeloid differentiation effects of ASLAN003 were observed; also recorded: Positive

Question: What about the “Survival of MOLM-14 xenograft mice” value ([6]; 50 mg/kg QD oral gavage, vs vehicle) of the same compound?
Answer: significantly (p=0.031) prolonged survival

Question: What about the Median survival ([6]; MOLM-14 xenograft NSG mice, 50 mg/kg QD oral gavage from 3 days past inoculation, vehicle group 24 days) of the same compound?
Answer: 27 days

Question: What about the “Leukaemic burden (percentage of CD45+ cells)” value ([6]; bone marrow, peripheral blood, spleen and liver, 50 mg/kg QD oral gavage, flow cytometry) of the same compound?
Answer: significantly decreased leukaemic burden

Question: And the “Differentiation of leukaemic cells (hCD11b+ and hCD14+ cells)” value ([6]; bone marrow, 50 mg/kg QD oral gavage, flow cytometry)?
Answer: significantly induced differentiation

Question: What about the “increase in CD11b+CD14+ cells” value ([7]; AD345, 4 μM) of the same compound?
Answer: about 11%

Question: What about the “increase in CD13+CD33+ cells” value ([7]; AD345, 4 μM) of the same compound?
Answer: about 12.3%

Question: And the viability at 4 µM ([7]; AD345, 4000 nM, DMSO control 93%, read-out: % viable cells)?
Answer: 86.5%

Question: What about the “increase in CD13+CD33+ cells” value ([8]; AD537, 4 μM) of the same compound?
Answer: about 12.3%

Question: What about the “increase in CD14+ cells” value ([8]; AD537, 4 μM) of the same compound?
Answer: about 20%

Question: And the “increase of CD11b+ cells” value ([8]; AD537, 4 μM)?
Answer: ~30%

Question: What about the viability at 4 µM ([8]; Bone marrow cell, AD537, 4000 nM, DMSO control 84.5%, read-out: % viable cells) of the same compound?
Answer: 73%

Question: And the Cell viability [9]?
Answer: has the ability to reduce the viability

Question: And the Cell viability [10]?
Answer: has the ability to reduce the viability
